According to patent publication US5288720A, “Angiotensin II receptor blocking 2,3,6 substituted quinazolinones” (American Cyanamid Company, priority 1993, dated 1994):

Tests used:
[1] = tested on: ANGIOTENSIN II VASOPRESSOR RESPONSE; assay: AII Challenge: blockade of angiotensin II vasopressor response in conscious SHR; assay type: in vivo, rat (Conscious Male Okamoto-Aoki SHR); conditions: SHR n=2, 3 mg/kg i.v.
Description: By administering a compound of this invention to a rat, and then challenging with angiotensin II, a blockage of the vasopressor response is realized.
Conscious Male Okamoto-Aoki SHR, 16-20 weeks old, weighing approximately 330 g are purchased from Charles River Labs (Wilmington, Mass.). Conscious rats are restrained in a supine position with elastic tape. The area at the base of the tail is locally anesthetized by subcutaneous infiltration with 2% procaine. The ventral caudal artery and vein are isolated, and a cannula made of polyethylene (PE) 10-20 tubing (fused together by heat) is passed into the lower abdominal aorta and vena cava, respectively. The cannula is secured, heparinized (1,000 I.U./ml), sealed and the wound is closed. The animals are placed in plastic restraining cages in an upright position. The cannula is attached to a Statham P23Db pressure transducer, and pulsatile blood pressure is recorded to 10-15 minutes with a Gould Brush recorder. (Chan et al., (Drug Development Res., 18:75-94, 1989).
Angiotensin II (human sequence, Sigma Chem. Co., St. Louis, MO) of 0.05 and 0.1 ug/kg i.v. is injected into all rats (predosing response). Then a test compound, vehicle or a known angiotensin II antagonist is administered i.v., i.p. or orally to each set of rats. The two doses of angiotensin II are given to each rat again at 30, 60, 90, 120, 180, 240 and 300 minutes post dosing the compound or vehicle. The vasopressor response of angiotensin II is measured for the increase in systolic blood pressure in mmHg. The percentage of antagonism or blockade of the vasopressor response of angiotensin II by a compound is calculated using the vasopressor response (increase in systolic blood pressure) of angiotensin II of each rat predosing the compound as 100%. A compound is considered active if at 30 mg/kg i.v. it antagonized at least 50% of the response.

[2] = molecular target: T1, Angiotensin II Receptor (Bos taurus, UniProt P25104); assay: Receptor Binding Assay: Binding of [^125 I](Sar^1,Ile^8)AngII to beef adrenal cortex membranes; conditions: 60 min, room temperature
T1 construct: The brownish tissue forming the adrenal cortex is scraped off and finely minced with scissors before homogenization; from tissue; host or cells: beef adrenal cortex, microsomal membranes (100,000×g pellet); fresh glands from a local slaughter house (Maxwell-Cohen)
T1 sequence (P25104 1-359): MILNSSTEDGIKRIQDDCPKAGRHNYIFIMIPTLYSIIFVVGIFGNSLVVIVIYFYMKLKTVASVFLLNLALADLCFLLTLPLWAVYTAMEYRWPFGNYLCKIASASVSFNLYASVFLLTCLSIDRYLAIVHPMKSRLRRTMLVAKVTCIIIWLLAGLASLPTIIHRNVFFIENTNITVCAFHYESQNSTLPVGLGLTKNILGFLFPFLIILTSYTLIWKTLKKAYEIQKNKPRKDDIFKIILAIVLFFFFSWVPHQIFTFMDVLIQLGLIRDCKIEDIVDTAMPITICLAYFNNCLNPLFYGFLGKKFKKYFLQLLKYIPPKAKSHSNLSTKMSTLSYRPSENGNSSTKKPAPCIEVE
Description: Beef adrenals are obtained from a local slaughter house (Maxwell-Cohen). [^125 […]. 2200 Ci/mmole, is purchased from Dupont (NEN®, Boston, Mass.). All unlabeled AngII analogs, Dimethylsulfoxide (DMSO), nucleotides, bovine serum albumin (BSA) are purchased from Sigma Chemical Co., St. Louis, Mo. U.S.A. […] Approximately sixteen (16) to twenty (20) beef adrenal glands are processed as follows: fresh adrenal glands received on crushed ice are cleaned of fatty tissues and the tough membranes encapsulating the glands are removed and discarded. The brownish tissue forming the adrenal cortex is scraped off and finely minced with scissors before homogenization. Care is taken to avoid contamination with medullary tissue during dissection. The scraped cortices are suspended in twenty volumes of an ice-cold buffer medium consisting of 10 mM Tris.HCl (pH 7.4 at 22° C.) and containing 1.0 mM EDTA and 0.2M sucrose. Unless otherwise indicated, all subsequent operations are done at 4° C. […] The homogenate is centrifuged first at low speed (3,000×g) for 10 minutes. […] This P2 pellet is discarded and the liquid phase is carefully decanted off in clean centrifuge tubes and recentrifuged at high speed (100,000×g) for 60 minutes. The translucent final pellet is harvested and combined in a small volume (20-50.0 ml) of 50.0 mM Tris.HCl buffer, pH 7.2. A 100 ul aliquot is withdrawn and the protein content of the preparation is determined by the Lowry's method (Lowry, O. H., Rosebrough, […]. and Randall, R. J., Protein measurement with Folin phenol reagent. J. Biol. Chem., […], 265-275, 1951). The pelleted membrane is reconstituted in 50.0 mM Tris.HCl buffer containing 0.1 mM of phenylmethylsulfonyl fluoride (PMSF) to give approximately a protein concentration of 2.5 mg per ml of tissue suspension. […] Receptor Binding Assay: […] In competition studies, experimental compounds are diluted in dimethylsulfoxide (DMSO) and added in 20 ul to wells before the introduction of tissue membranes. […] Assays are performed in triplicate. The wells are left undisturbed for 60 minutes at room temperature. Following incubation, all wells are harvested at once with a Brandel® Harvester especially designed for a 96 well plate (Brandel® Biomedical Research & Development Labs. Inc., Gaithersburg, Md., U.S.A.). The filter discs are washed with 10×1.0 ml of cold 0.9% NaCl to remove unbound ligand. Presoaking the filter sheet in 0.1% polyethyleneimine in normal saline (PEI/Saline) greatly reduces the radioactivity retained by the filter blanks. This method is routinely used. The filters are removed from the filter grid and counted in a Parkard® Cobra Gamma Counter for 1 minutes. (Packard Instrument Co., Downers Grove, Ill, U.S.A.). The binding data are analyzed by the non-linear interactive "LUNDON-1" program (LUNDON SOFTWARE Inc., Cleveland, Ohio U.S.A.).

[3] = AII 0.05 mcg/kg IV, 30 min post dose
[4] = AII 0.05 mcg/kg IV, 60 min post dose
[5] = AII 0.05 mcg/kg IV, 90 min post dose
[6] = AII 0.05 mcg/kg IV, 120 min post dose
[7] = AII 0.05 mcg/kg IV, 180 min post dose
[8] = AII 0.05 mcg/kg IV, 240 min post dose
[9] = AII 0.05 mcg/kg IV, 300 min post dose
[10] = AII 0.1 mcg/kg IV, 30 min post dose
[11] = AII 0.1 mcg/kg IV, 60 min post dose
[12] = AII 0.1 mcg/kg IV, 90 min post dose
[13] = AII 0.1 mcg/kg IV, 120 min post dose
[14] = AII 0.1 mcg/kg IV, 180 min post dose
[15] = AII 0.1 mcg/kg IV, 240 min post dose
[16] = AII 0.1 mcg/kg IV, 300 min post dose

Row | SMILES | % Inhibition of AII vasopressor response [1, 3] [%] | Average Change (systolic blood pressure response to AII) [1, 3] [mmHg] | % Inhibition of AII vasopressor response [1, 4] [%] | Average Change (systolic blood pressure response to AII) [1, 4] [mmHg] | % Inhibition of AII vasopressor response [1, 5] [%] | Average Change (systolic blood pressure response to AII) [1, 5] [mmHg] | % Inhibition of AII vasopressor response [1, 6] [%] | Average Change (systolic blood pressure response to AII) [1, 6] [mmHg] | % Inhibition of AII vasopressor response [1, 7] [%] | Average Change (systolic blood pressure response to AII) [1, 7] [mmHg] | % Inhibition of AII vasopressor response [1, 8] [%] | Average Change (systolic blood pressure response to AII) [1, 8] [mmHg] | % Inhibition of AII vasopressor response [1, 9] [%] | Average Change (systolic blood pressure response to AII) [1, 9] [mmHg] | % Inhibition of AII vasopressor response [1, 10] [%] | Average Change (systolic blood pressure response to AII) [1, 10] [mmHg] | % Inhibition of AII vasopressor response [1, 11] [%] | Average Change (systolic blood pressure response to AII) [1, 11] [mmHg] | % Inhibition of AII vasopressor response [1, 12] [%] | Average Change (systolic blood pressure response to AII) [1, 12] [mmHg] | further results
1 | CCCCc1nc2ccc(C(C)(O)C3CCN(C)C3=O)cc2c(=O)n1Cc1ccc(-c2ccccc2-c2nn[nH]n2)cc1 (single isomer, unassigned; isomer 2) [Example 48, 2-Butyl-6-1-hydroxy-1(1-methyl-2-oxo-3-pyrrolidinyl)ethyl]-3-[[2'-(1H-tetrazol-5-yl)[1,1'-biphenyl]-4-yl]methyl-4(3H)-quinazolinone isomer 2] | 92 | 3.5 | 89 | 5 | 83 | 7.5 | 97 | 1.5 | 69 | 13.5 | 68 | 14 | 71 | 12.5 | 95 | 25 | 100 | 0 | 95 | 2.5 | % Inhibition of AII vasopressor response [1, 13]: 84%; Average Change (systolic blood pressure response to AII) [1, 13]: 8.5 mmHg; % Inhibition of AII vasopressor response [1, 14]: 57%; Average Change (systolic blood pressure response to AII) [1, 14]: 22.5 mmHg; % Inhibition of AII vasopressor response [1, 15]: 52%; % Inhibition of AII vasopressor response [1, 16]: 57%; Average Change (systolic blood pressure response to AII) [1, 16]: 22.5 mmHg; IC50 [2]: 43 nM
2 | CCCCc1nc2ccc(C(C)(O)C3CCCN(C)C3=O)cc2c(=O)n1Cc1ccc(-c2ccccc2-c2nn[nH]n2)cc1 (single isomer, unassigned; isomer 2) [Example 53, 2-Butyl-6-[1-hydroxy(1-methyl-2-oxo-3-piperidinyl)ethyl]-3-[[2'-(1H-tetrazol-5-yl)[1,1'-biphenyl]-4-yl]methyl]-4(3H)-quinazolinone isomer 2] | 89 | 5 | 89 | 5 | 58 | 20 | 58 | 20 | 37 | 30 | 58 | 20 | 53 | 22.5 | 76 | 12.5 | 61 | 20 | 76 | 12.5 | % Inhibition of AII vasopressor response [1, 13]: 61%; Average Change (systolic blood pressure response to AII) [1, 13]: 20 mmHg; % Inhibition of AII vasopressor response [1, 14]: 42%; Average Change (systolic blood pressure response to AII) [1, 14]: 30 mmHg; % Inhibition of AII vasopressor response [1, 15]: 43%; Average Change (systolic blood pressure response to AII) [1, 15]: 29.5 mmHg; % Inhibition of AII vasopressor response [1, 16]: 17%; Average Change (systolic blood pressure response to AII) [1, 16]: 42.5 mmHg; IC50 [2]: 54 nM
